Data published in US20260193264A1, “BENZOYPARAZINE PYRAZINES AND THEIR USES” (FOGHORN THERAPEUTICS INC., priority 2022, published 2026).
Read-outs that look alike come from different tables or passages of the source.

Key:
[1] = target: T1, HiBit-BRG1 fusion protein in stable HeLa cell line expressing HiBit-BRG1 and LgBit (Homo sapiens, UniProt P51532); assay: HiBiT-BRG1 cell-based degradation assay (Nano-Glo HiBiT, 24 h); conditions: HeLa HiBit-BRG1/LgBit cells; for DC50: read-out: BRMG1 HiBit Degradation IC50; for Dmax: top dose 30 μM, read-out: BRG1 HiBit Degradation Maximum (%)
T1 construct: expressed in transfected cells
Protocol: Procedure: A stable HeLa cell line expressing HiBiT-BRM was generated. On day 0, 5000 cells were seeded in 40 μL of media into each well of 384-well cell culture plates. […] Subsequently plates were incubated for 24 h in a standard tissue culture incubator and equilibrated at room temperature for 15 minutes. Nano-Glo HiBiT Lytic Detection System (Promega N3050) reagent was freshly prepared and 20 ul was added to each well. Upon addition of this LgBit-containing reagent, the HiBiT and LgBiT proteins associate to form the luminescent NanoBiT luciferase. The plates were shaken for 10 minutes at room temperature and the bioluminescence read using an EnVision plate reader (PerkinElmer). For measurement of BRG1 degradation, a stable HeLa cell line expressing HiBit-BRG1 and LgBit was generated. The same protocol as above was then followed. The degradation % was calculated using the following formula: % degradation=100%−100%×(Lumsample−LumLC)/(LumHC−LumLC). DMSO treated cells are employed as High Control (HC) and 2 μM of a known BRM/BRG1 degrader standard treated cells are employed as Low Control (LC).

[2] = target: T2, HiBiT-BRM fusion protein in stable HeLa cell line (Homo sapiens, UniProt P51531); assay: HiBiT-BRM cell-based degradation assay (Nano-Glo HiBiT Lytic Detection, 24 h); parameters: DC50: scale not given here; conditions: HeLa HiBiT-BRM cells; for DC50: read-out: BRM HiBit Degradation IC50; for BRM HiBit Degradation Maximum (%): top dose 30 μM
T2 construct: expressed in transfected cells
Protocol: Procedure: A stable HeLa cell line expressing HiBiT-BRM was generated. On day 0, 5000 cells were seeded in 40 μL of media into each well of 384-well cell culture plates. On day 1, cells were treated with 120 nL DMSO or 120 nL of 3-fold serially DMSO-diluted compounds (10 points in duplicate with 30 μM as final top dose). Subsequently plates were incubated for 24 h in a standard tissue culture incubator and equilibrated at room temperature for 15 minutes. Nano-Glo HiBiT Lytic Detection System (Promega N3050) reagent was freshly prepared and 20 ul was added to each well. Upon addition of this LgBit-containing reagent, the HiBiT and LgBiT proteins associate to form the luminescent NanoBiT luciferase. The plates were shaken for 10 minutes at room temperature and the bioluminescence read using an EnVision plate reader (PerkinElmer).
The degradation % was calculated using the following formula: % degradation=100%−100%×(Lumsample−LumLC)/(LumHC−LumLC). DMSO treated cells are employed as High Control (HC) and 2 μM of a known BRM/BRG1 degrader standard treated cells are employed as Low Control (LC).

T1 sequence (P51532 whole entry, the tested form may be a part): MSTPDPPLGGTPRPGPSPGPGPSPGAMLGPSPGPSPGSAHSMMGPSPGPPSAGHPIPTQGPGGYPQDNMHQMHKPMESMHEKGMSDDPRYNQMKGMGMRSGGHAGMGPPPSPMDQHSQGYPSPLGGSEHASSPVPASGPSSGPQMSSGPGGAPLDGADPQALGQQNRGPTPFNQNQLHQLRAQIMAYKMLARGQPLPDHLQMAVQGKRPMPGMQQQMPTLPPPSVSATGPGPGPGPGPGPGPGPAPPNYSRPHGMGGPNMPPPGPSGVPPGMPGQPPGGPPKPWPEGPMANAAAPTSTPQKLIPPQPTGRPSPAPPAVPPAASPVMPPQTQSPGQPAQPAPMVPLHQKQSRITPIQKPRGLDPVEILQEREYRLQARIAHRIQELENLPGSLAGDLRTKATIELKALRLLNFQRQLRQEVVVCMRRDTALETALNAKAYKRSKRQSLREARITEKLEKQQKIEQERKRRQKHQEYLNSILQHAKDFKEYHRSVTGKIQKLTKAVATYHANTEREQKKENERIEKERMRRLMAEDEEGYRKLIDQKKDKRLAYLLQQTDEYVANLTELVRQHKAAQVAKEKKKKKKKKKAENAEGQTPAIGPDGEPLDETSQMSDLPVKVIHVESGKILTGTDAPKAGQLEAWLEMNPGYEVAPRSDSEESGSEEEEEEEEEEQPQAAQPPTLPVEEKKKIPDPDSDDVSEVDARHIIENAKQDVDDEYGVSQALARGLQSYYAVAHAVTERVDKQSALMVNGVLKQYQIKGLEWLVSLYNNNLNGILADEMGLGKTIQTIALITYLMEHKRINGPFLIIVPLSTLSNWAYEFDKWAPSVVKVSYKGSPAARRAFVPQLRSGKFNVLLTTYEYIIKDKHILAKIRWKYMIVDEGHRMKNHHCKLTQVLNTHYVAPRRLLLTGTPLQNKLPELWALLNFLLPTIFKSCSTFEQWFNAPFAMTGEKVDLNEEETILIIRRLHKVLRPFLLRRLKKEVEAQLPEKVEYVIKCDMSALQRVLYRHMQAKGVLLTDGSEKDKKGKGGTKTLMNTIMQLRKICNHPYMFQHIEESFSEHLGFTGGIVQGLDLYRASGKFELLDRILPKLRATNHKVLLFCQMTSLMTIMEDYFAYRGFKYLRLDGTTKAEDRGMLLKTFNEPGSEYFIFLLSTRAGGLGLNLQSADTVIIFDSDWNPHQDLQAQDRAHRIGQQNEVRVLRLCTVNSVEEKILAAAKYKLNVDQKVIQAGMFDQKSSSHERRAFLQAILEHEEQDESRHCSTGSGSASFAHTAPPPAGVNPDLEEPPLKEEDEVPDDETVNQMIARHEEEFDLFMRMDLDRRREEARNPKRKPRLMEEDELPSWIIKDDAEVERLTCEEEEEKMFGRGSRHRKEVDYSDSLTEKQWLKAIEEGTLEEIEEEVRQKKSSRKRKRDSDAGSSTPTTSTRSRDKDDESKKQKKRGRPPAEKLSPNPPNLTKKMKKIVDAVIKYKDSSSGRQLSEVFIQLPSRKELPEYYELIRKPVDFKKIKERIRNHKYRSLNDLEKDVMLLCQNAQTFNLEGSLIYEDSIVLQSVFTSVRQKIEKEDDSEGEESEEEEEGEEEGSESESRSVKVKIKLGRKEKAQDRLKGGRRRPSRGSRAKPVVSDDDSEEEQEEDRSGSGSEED
T2 sequence (P51531 whole entry, the tested form may be a part): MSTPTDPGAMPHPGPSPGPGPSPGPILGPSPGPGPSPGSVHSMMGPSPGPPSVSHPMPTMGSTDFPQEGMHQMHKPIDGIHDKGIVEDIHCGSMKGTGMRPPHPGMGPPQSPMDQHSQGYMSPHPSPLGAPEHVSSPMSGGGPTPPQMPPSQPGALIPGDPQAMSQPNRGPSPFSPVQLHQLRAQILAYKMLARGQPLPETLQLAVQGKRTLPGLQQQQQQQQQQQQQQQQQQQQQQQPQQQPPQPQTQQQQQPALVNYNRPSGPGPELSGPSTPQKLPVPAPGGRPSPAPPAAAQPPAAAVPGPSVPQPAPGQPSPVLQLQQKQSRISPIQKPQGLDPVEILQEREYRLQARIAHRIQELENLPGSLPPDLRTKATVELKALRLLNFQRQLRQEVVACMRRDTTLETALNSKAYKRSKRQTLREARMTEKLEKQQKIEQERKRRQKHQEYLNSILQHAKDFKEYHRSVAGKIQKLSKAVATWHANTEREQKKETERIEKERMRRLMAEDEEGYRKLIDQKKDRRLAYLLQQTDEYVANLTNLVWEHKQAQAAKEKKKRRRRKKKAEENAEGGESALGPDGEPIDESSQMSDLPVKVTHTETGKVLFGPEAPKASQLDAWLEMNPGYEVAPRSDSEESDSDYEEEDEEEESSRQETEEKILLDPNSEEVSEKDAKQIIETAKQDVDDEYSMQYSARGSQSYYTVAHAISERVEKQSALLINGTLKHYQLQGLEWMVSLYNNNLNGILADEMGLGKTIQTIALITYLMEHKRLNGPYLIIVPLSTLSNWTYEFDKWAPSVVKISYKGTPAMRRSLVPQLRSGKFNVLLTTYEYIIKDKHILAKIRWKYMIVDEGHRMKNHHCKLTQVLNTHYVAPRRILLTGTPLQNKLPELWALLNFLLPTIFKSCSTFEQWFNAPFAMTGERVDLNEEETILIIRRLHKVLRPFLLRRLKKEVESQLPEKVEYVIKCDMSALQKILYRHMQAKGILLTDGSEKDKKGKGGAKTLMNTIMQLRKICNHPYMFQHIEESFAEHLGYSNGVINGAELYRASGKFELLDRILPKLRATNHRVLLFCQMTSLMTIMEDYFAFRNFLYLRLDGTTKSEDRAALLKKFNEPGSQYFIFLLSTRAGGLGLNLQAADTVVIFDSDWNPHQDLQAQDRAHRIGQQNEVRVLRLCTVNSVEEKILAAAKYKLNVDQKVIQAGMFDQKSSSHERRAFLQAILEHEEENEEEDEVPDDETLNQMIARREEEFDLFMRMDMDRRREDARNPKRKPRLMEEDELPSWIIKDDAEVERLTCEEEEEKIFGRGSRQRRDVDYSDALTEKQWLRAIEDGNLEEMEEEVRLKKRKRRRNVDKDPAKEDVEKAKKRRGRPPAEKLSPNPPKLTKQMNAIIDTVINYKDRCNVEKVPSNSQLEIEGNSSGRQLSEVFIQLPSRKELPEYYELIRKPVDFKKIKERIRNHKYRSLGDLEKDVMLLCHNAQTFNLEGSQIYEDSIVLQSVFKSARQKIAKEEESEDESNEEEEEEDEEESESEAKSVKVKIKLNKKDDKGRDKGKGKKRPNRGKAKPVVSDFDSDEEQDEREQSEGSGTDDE

Structure (SMILES)	DC50 [1]	Dmax [1]	DC50 [2]	BRM HiBit Degradation Maximum (%) [2]	DC50 ([2]; given as a number)
Cc1ncsc1-c1ccc([C@H](C)NC(=O)[C@@H]2C[C@@H](O)CN2C(=O)[C@@H](c2cc(-c3cnc(N4CC5(CC(c6ccc7cc(-c8ccccc8O)nnc7c6)C5)C4)nc3)no2)C(C)C)cc1 [Compound 18]	> 10 nM	> 50%	< 10 nM	A (“A” indicates maximum degradation ≥75%)	–
Cc1ncsc1-c1ccc([C@H](C)NC(=O)[C@@H]2C[C@@H](O)CN2C(=O)[C@H](c2cc(-c3cnc(N4CC[C@@H](c5ccc6cc(-c7ccccc7O)nnc6c5)C4)nc3)no2)C(C)C)cc1 [Compound 19]	–	< 50%	> 100 nM	B (“B” indicates maximum degradation ≥50%)	–
Cc1ncsc1-c1ccc([C@H](C)NC(=O)[C@@H]2C[C@@H](O)CN2C(=O)[C@@H](c2cc(-c3cnc(N4CC[C@@H](c5ccc6cc(-c7ccccc7O)nnc6c5)C4)nc3)no2)C(C)C)cc1 [Compound 20]	–	< 50%	< 10 nM	A (“A” indicates maximum degradation ≥75%)	–
Cc1ncsc1-c1ccc([C@H](C)NC(=O)[C@@H]2C[C@@H](O)CN2C(=O)[C@H](c2cc(-c3cnc(N4CC[C@H](c5ccc6cc(-c7ccccc7O)nnc6c5)C4)nc3)no2)C(C)C)cc1 [Compound 21]	–	< 50%	–	C (“C” indicates maximum degradation <50%)	–
Cc1ncsc1-c1ccc([C@H](C)NC(=O)[C@@H]2C[C@@H](O)CN2C(=O)[C@@H](c2cc(-c3cnc(N4CC[C@H](c5ccc6cc(-c7ccccc7O)nnc6c5)C4)nc3)no2)C(C)C)cc1 [Compound 22]	< 10 nM	> 75%	< 10 nM	A (“A” indicates maximum degradation ≥75%)	–
COc1cc2nnc(-c3ccccc3O)cc2cc1C1CN(c2ncc(-c3cc([C@@H](C(=O)N4C[C@H](O)C[C@H]4C(=O)N[C@@H](C)c4ccc(-c5scnc5C)cc4)C(C)C)on3)cn2)C1 [Compound 23]	–	< 50%	> 10 nM	A (“A” indicates maximum degradation ≥75%)	–
COc1cc2nnc(-c3ccccc3O)cc2cc1C1CN(c2ncc(-c3cc([C@H](C(=O)N4C[C@H](O)C[C@H]4C(=O)N[C@@H](C)c4ccc(-c5scnc5C)cc4)C(C)C)on3)cn2)C1 [Compound 24]	< 10 nM	> 75%	< 10 nM	A (“A” indicates maximum degradation ≥75%)	–
Cc1ncsc1-c1ccc([C@H](C)NC(=O)[C@@H]2C[C@@H](O)CN2C(=O)[C@H](c2cc(N3CCC4(CC3)CC(c3ccc5cc(-c6ccccc6O)nnc5c3)C4)no2)C(C)C)cc1 [Compound 25]	–	< 50%	> 100 nM	B (“B” indicates maximum degradation ≥50%)	–
Cc1ncsc1-c1ccc([C@H](C)NC(=O)[C@@H]2C[C@@H](O)CN2C(=O)[C@@H](c2cc(N3CCC4(CC3)CC(c3ccc5cc(-c6ccccc6O)nnc5c3)C4)no2)C(C)C)cc1 [Compound 26]	> 10 nM	> 75%	< 10 nM	A (“A” indicates maximum degradation ≥75%)	–
Cc1ncsc1-c1ccc([C@H](C)NC(=O)[C@@H]2C[C@@H](O)CN2C(=O)[C@H](c2cc(-c3cnc(N4CC(c5cc(F)c6cc(-c7ccccc7O)nnc6c5)C4)nc3)no2)C(C)C)cc1 [Compound 27]	–	< 50%	> 100 nM	A (“A” indicates maximum degradation ≥75%)	–
Cc1ncsc1-c1ccc([C@H](C)NC(=O)[C@@H]2C[C@@H](O)CN2C(=O)[C@@H](c2cc(-c3cnc(N4CC(c5cc(F)c6cc(-c7ccccc7O)nnc6c5)C4)nc3)no2)C(C)C)cc1 [Compound 28]	–	< 50%	> 10 nM	A (“A” indicates maximum degradation ≥75%)	–
Cc1ncsc1-c1ccc([C@H](C)NC(=O)[C@@H]2C[C@@H](O)CN2C(=O)[C@H](c2cc(-c3cnc(N4CC(c5cc6cc(-c7ccccc7O)nnc6cc5Cl)C4)nc3)no2)C(C)C)cc1 [Compound 29]	–	< 50%	> 100 nM	A (“A” indicates maximum degradation ≥75%)	–
Cc1ncsc1-c1ccc([C@H](C)NC(=O)[C@@H]2C[C@@H](O)CN2C(=O)[C@@H](c2cc(-c3cnc(N4CC(c5cc6cc(-c7ccccc7O)nnc6cc5Cl)C4)nc3)no2)C(C)C)cc1 [Compound 30]	> 10 nM	> 75%	< 10 nM	A (“A” indicates maximum degradation ≥75%)	–
Cc1ncsc1-c1ccc([C@H](C)NC(=O)[C@@H]2C[C@@H](O)CN2C(=O)[C@H](c2cc(-c3cnc(N4CC(c5cc6nnc(-c7ccccc7O)cc6cc5Cl)C4)nc3)no2)C(C)C)cc1 [Compound 31]	–	< 50%	–	A (“A” indicates maximum degradation ≥75%)	243 nM
Cc1ncsc1-c1ccc([C@H](C)NC(=O)[C@@H]2C[C@@H](O)CN2C(=O)[C@@H](c2cc(-c3cnc(N4CC(c5cc6nnc(-c7ccccc7O)cc6cc5Cl)C4)nc3)no2)C(C)C)cc1 [Compound 32]	–	< 50%	> 10 nM	B (“B” indicates maximum degradation ≥50%)	–
Cc1ncsc1-c1ccc([C@H](C)NC(=O)[C@@H]2C[C@@H](O)CN2C(=O)[C@H](c2cc(N3CC4(CC(c5ccc6cc(-c7ccccc7O)nnc6c5)C4)C3)no2)C(C)C)cc1 [Compound 33]	–	< 50%	> 100 nM	A (“A” indicates maximum degradation ≥75%)	–
Cc1ncsc1-c1ccc([C@H](C)NC(=O)[C@@H]2C[C@@H](O)CN2C(=O)[C@@H](c2cc(N3CC4(CC(c5ccc6cc(-c7ccccc7O)nnc6c5)C4)C3)no2)C(C)C)cc1 [Compound 34]	> 10 nM	> 75%	< 10 nM	A (“A” indicates maximum degradation ≥75%)	–
Cc1ncsc1-c1ccc([C@H](C)NC(=O)[C@@H]2C[C@@H](O)CN2C(=O)[C@H](c2cc(-c3cnc(N4CC(c5cc(Cl)c6cc(-c7ccccc7O)nnc6c5)C4)nc3)no2)C(C)C)cc1 [Compound 35]	–	< 50%	> 100 nM	B (“B” indicates maximum degradation ≥50%)	–
Cc1ncsc1-c1ccc([C@H](C)NC(=O)[C@@H]2C[C@@H](O)CN2C(=O)[C@@H](c2cc(-c3cnc(N4CC(c5cc(Cl)c6cc(-c7ccccc7O)nnc6c5)C4)nc3)no2)C(C)C)cc1 [Compound 36]	–	< 50%	> 10 nM	B (“B” indicates maximum degradation ≥50%)	–
Cc1ncsc1-c1ccc([C@H](C)NC(=O)[C@@H]2C[C@@H](O)CN2C(=O)[C@H](c2cc(-c3ccnc(N4CCC(c5ccc6nnc(-c7ccccc7O)cc6c5)CC4)n3)no2)C(C)C)cc1 [Compound 37]	–	< 50%	–	C (“C” indicates maximum degradation <50%)	–
Cc1ncsc1-c1ccc([C@H](C)NC(=O)[C@@H]2C[C@@H](O)CN2C(=O)[C@@H](c2cc(-c3ccnc(N4CCC(c5ccc6nnc(-c7ccccc7O)cc6c5)CC4)n3)no2)C(C)C)cc1 [Compound 38]	–	< 50%	> 100 nM	A (“A” indicates maximum degradation ≥75%)	–
Cc1ncsc1-c1ccc([C@H](C)NC(=O)[C@@H]2C[C@@H](O)CN2C(=O)[C@H](c2cc(-c3cnc(N4CCN(c5ccc6cc(-c7ccccc7O)nnc6c5)CC4)nc3)no2)C(C)C)cc1 [Compound 39]	–	< 50%	–	C (“C” indicates maximum degradation <50%)	–
Cc1ncsc1-c1ccc([C@H](C)NC(=O)[C@@H]2C[C@@H](O)CN2C(=O)[C@@H](c2cc(-c3cnc(N4CCN(c5ccc6cc(-c7ccccc7O)nnc6c5)CC4)nc3)no2)C(C)C)cc1 [Compound 40]	–	< 50%	< 10 nM	A (“A” indicates maximum degradation ≥75%)	–
Cc1ncsc1-c1ccc([C@H](C)NC(=O)[C@@H]2C[C@@H](O)CN2C(=O)[C@H](c2cc(-c3cnc(N4CCC(c5ccc6nnc(-c7ccccc7O)cc6c5)CC4)nc3)no2)C(C)C)cc1 [Compound 41]	–	< 50%	–	C (“C” indicates maximum degradation <50%)	–
